In general, IC50 refers to the midpoint of a concentration-inhibition curve.

One assay concerns the target RON (human) (Homo sapiens, UniProt Q04912). The experiment in a line: RON (human) AlphaScreen kinase assay, Km of ATP. In kind it is biochemical. Conditions: AlphaScreen, Km of ATP; read-out: RON biochemical IC50. As for the experimental part: (§1) Someone skilled in the art will appreciate that a variety of assay formats may be used to determine the activity of the compounds of this invention. For example, AlphaScreen (Amplified Luminescent Proximity Homogeneous Assay) technology was used with the kinases described below. Assay ATP concentrations for individual kinases are included in the text.
Desired compound is added in a final concentration of 1% DMSO with control being vehicle of DMSO alone. […] Enzyme is added to initiate the reaction and incubated for 30 min at RT. In subdued light, appropriate amount of PT66 donor and acceptor beads (diluted 1:260 from manufacturer's provision in a 25 mM Tris HCl (pH=7.5), 200 mM NaCl, 100 mM EDTA, 0.3% BSA buffer) are added to the wells. The plates, incubated for 1 h, are read on an AlphaQuest plate reader.

A further assay addresses MET (human) (Homo sapiens, UniProt P08581). Briefly: MET (human) AlphaScreen kinase assay, Km of ATP. In kind it is biochemical. The conditions noted are these: AlphaScreen, Km of ATP; read-out: Met biochemical IC50. As for the experimental part:
as §1
Desired compound is added in a final concentration of 1% DMSO with control being vehicle of DMSO alone. MET is diluted to the optimized concentration (optimized on a lot-by-lot basis) in an enzyme diluent buffer (50 mM Tris pH=7.4, 1% glycerol, 0.03% Brij35, 0.24 mM EGTA, 1 mM DTT, and 0.003% BSA). Enzyme is added to initiate the reaction and incubated for 60 min at RT. In subdued light, appropriate amount of PT66 donor and acceptor beads (diluted 1:260 from manufacturer's provision in a 25 mM Tris HCl (pH=7.5), 400 mM NaCl, 100 mM EDTA, 0.3% BSA buffer) are added to the wells. The plates, incubated for 1 h, are read on an AlphaQuest plate reader
On the technique in general: In Alpha technology, singlet oxygen from a donor bead excites a nearby acceptor bead.

Sequence of RON (human) (Q04912 25-1400): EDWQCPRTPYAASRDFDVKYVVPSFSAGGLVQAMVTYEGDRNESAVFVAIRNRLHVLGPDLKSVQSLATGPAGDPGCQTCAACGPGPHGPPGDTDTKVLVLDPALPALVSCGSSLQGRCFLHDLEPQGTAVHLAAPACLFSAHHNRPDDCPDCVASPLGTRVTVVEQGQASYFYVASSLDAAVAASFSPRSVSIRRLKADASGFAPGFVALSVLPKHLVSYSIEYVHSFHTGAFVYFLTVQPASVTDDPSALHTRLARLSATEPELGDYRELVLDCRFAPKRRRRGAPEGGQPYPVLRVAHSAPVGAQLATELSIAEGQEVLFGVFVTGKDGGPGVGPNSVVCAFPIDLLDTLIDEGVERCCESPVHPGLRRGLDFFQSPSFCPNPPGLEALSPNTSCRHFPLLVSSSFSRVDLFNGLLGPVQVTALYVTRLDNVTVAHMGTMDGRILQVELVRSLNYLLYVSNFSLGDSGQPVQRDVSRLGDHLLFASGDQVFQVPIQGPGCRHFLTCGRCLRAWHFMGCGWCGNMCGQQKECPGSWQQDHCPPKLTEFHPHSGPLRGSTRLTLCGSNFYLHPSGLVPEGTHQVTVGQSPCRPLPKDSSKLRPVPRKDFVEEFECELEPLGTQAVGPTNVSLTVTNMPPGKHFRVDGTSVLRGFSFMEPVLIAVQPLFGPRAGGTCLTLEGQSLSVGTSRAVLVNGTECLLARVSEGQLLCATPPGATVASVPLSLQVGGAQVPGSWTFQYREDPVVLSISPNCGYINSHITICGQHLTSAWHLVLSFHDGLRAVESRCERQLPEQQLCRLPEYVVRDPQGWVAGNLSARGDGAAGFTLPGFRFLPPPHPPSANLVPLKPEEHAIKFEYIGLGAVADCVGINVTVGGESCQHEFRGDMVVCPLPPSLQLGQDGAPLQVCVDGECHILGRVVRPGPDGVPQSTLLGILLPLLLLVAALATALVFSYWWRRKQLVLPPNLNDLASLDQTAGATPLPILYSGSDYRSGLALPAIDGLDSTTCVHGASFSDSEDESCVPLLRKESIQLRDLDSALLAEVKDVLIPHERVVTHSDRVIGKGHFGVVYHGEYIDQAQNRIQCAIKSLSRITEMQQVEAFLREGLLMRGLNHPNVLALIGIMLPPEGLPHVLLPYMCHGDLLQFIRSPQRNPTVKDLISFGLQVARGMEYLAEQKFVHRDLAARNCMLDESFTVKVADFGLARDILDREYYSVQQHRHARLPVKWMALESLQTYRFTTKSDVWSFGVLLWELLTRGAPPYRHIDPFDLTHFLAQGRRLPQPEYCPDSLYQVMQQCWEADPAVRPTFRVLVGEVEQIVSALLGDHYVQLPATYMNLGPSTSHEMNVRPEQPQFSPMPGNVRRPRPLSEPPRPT
Sequence of MET (human) (P08581 25-1390): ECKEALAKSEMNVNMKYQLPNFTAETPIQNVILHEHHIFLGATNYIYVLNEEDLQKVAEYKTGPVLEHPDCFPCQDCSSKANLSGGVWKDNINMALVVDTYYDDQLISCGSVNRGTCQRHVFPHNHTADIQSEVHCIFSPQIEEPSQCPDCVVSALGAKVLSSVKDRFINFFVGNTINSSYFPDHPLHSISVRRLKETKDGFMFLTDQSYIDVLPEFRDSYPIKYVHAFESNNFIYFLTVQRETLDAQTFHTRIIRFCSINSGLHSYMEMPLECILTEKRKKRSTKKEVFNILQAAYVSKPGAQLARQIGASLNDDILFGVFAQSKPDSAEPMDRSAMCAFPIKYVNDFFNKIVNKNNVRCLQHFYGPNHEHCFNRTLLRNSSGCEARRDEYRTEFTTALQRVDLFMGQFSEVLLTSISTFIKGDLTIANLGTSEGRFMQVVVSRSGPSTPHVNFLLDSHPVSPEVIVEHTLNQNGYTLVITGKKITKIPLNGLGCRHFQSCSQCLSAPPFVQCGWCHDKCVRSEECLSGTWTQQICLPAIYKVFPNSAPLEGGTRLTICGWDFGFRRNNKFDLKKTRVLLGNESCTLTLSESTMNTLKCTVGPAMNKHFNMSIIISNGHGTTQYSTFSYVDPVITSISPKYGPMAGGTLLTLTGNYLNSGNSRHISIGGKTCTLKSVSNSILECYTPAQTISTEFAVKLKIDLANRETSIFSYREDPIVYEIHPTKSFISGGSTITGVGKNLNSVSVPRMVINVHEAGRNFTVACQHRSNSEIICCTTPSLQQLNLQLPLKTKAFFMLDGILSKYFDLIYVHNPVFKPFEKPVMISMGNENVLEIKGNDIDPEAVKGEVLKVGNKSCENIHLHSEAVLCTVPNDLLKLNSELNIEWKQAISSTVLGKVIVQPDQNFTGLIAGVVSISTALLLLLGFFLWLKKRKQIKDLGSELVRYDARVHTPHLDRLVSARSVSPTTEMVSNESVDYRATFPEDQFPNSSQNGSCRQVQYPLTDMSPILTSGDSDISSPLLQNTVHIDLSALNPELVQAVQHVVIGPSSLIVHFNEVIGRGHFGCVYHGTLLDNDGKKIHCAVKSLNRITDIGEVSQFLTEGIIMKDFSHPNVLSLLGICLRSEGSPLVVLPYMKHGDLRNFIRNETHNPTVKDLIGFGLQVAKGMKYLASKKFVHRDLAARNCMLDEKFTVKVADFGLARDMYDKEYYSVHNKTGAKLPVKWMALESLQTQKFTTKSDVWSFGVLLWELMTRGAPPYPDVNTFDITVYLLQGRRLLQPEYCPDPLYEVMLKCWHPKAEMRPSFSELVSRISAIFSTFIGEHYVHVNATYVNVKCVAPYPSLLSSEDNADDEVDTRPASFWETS

For `C[C@@H](Oc1c(N)ncc2c(C3=CCN(C(=O)[C@@H]4CCCCN4)CC3)coc12)c1c(Cl)ccc(F)c1Cl` [Example 238, (4-{6-Amino-7-[(R)-1-(2,6-dichloro-3-fluorophenyl)ethoxy]-furo[3,2-c]pyridin-3-yl}-3,6-dihydro-2H-pyridin-1-yl)-(S)-piperidin-2-ylmethanone], the half-maximal inhibitory concentration (IC50) on RON (human) and at MET (human) was < 500 nM throughout.

For `C[C@@H](Oc1c(N)ncc2c(C3=CCN(C(=O)[C@@H](N)Cc4cnc[nH]4)CC3)coc12)c1c(Cl)ccc(F)c1Cl` [Example 263, (2S)-2-Amino-1-[4-{6-amino-7-[(1R)-1-(2,6-dichloro-3-fluoro-phenyl)ethoxy]furo[3,2-c]pyridin-3-yl}-3,6-dihydropyridin-1(2H)-yl]-3-(1H-imidazol-5-yl)propan-1-one], the half-maximal inhibitory concentration (IC50) at RON (human) and on MET (human) was < 500 nM throughout.

Regarding `C[C@@H](Oc1c(N)ncc2c(-c3ccc(O)cc3)coc12)c1c(Cl)ccc(F)c1Cl` [Example 59, 4-{6-Amino-7-[(R)-1-(2,6-dichloro-3-fluorophenyl)ethoxy]-furo[3,2-c]pyridin-3-yl}phenol], the half-maximal inhibitory concentration (IC50) on RON (human) and at MET (human) was 500 to 5000 nM throughout.

`C[C@@H](Oc1c(N)ncc2c(C3=CCN(C(=O)C4CCNCC4)CC3)coc12)c1c(Cl)ccc(F)c1Cl` [Example 21, (4-{6-Amino-7-[(R)-1-(2,6-dichloro-3-fluorophenyl)-ethoxy]-furo[3,2-c]pyridin-3-yl}-3,6-dihydro-2H-pyridin-1-yl)-piperidin-4-ylmethanone]: the IC50 at RON (human) and on MET (human) was < 500 nM throughout.

`CC(Oc1c(N)ncc2c(-c3cnn(C4CCNCC4)c3)coc12)c1ccccc1C(F)(F)F` (stereo not drawn) [Example 346, 3-(1-Piperidin-4-yl-1H-pyrazol-4-yl)-7-[1-(2-trifluoromethyl-phenyl)ethoxy]furo[3,2-c]pyridin-6-ylamine]: the half-inhibitory concentration (IC50) on RON (human) and on MET (human) was 500 to 5000 nM each time.

Consider `C[C@@H](Oc1c(N)ncc2c(-c3csc(C(=O)NC(C)(C)C)c3)coc12)c1c(Cl)ccc(F)c1Cl` [Example 315, 4-{6-Amino-7-[(R)-1-(2,6-dichloro-3-fluorophenyl)ethoxy]-furo[3,2-c]pyridin-3-yl}thiophene-2-carboxylic acid tert-butylamide], for which the 50% inhibitory concentration (IC50) at RON (human) was 500 to 5000 nM; at MET (human), < 500 nM.

Take `C[C@@H](Oc1c(N)ncc2c(-c3csc(CN)c3)coc12)c1c(Cl)ccc(F)c1Cl` [Example 310, 3-(5-Aminomethylthiophen-3-yl)-7-[(R)-1-(2,6-dichloro-3-fluoro-phenyl)ethoxy]furo[3,2-c]pyridin-6-ylamine]: the half-maximal inhibitory concentration (IC50) at RON (human) and at MET (human) was < 500 nM each time.

On to `C[C@@H](Oc1c(N)ncc2c(C3=CCN(C(=O)[C@H](N)Cc4cnc[nH]4)CC3)coc12)c1c(Cl)ccc(F)c1Cl` [Example 264, (2R)-2-Amino-1-[4-{6-amino-7-[(1R)-1-(2,6-dichloro-3-fluoro-phenyl)ethoxy]furo[3,2-c]pyridin-3-yl}-3,6-dihydropyridin-1(2H)-yl]-3-(1H-imidazol-5-yl)propan-1-one], for which the IC50 at RON (human) is 5000 to 20000 nM; at MET (human) it was < 500 nM.

On to `C[C@@H](Oc1c(N)ncc2c(-c3cccc(NS(=O)(=O)CCN(C)C)c3)coc12)c1c(Cl)ccc(F)c1Cl` [Example 249, 2-Dimethylaminoethanesulfonic Acid (3-{6-amino-7-[(R)-1-(2,6-dichloro-3-fluorophenyl)ethoxy]furo[3,2-c]pyridin-3-yl}phenyl)amide], for which the IC50 on RON (human) and at MET (human) was 500 to 5000 nM in each case.

For `CC(C)NC(=O)c1coc2c(O[C@H](C)c3c(Cl)ccc(F)c3Cl)c(N)ncc12` [Example 183, 6-Amino-7-[(R)-1-(2,6-dichloro-3-fluorophenyl)ethoxy]furo[3,2-c]pyridine-3-carboxylic acid isopropylamide], the 50% inhibitory concentration (IC50) at RON (human) and on MET (human) was 500 to 5000 nM each time.

With `C[C@@H](Oc1c(N)ncc2c(-c3cnn([C@@H]4CCNC4)c3)coc12)c1c(Cl)ccc(F)c1Cl` [Example 162, 7-[(1R)-1-(2,6-dichloro-3-fluorophenyl)ethoxy]-3-{1-[(3R)-pyrrolidin-3-yl]-1H-pyrazol-4-yl}furo[3,2-c]pyridin-6-amine], the 50% inhibitory concentration (IC50) on RON (human) and on MET (human) was < 500 nM throughout.

Take `CC(Cc1ccccc1Cl)Oc1c(N)ncc2c(-c3cnn(C4CCNCC4)c3)coc12` (stereo not drawn) [Example 426, 7-[2-(2-Chlorophenyl)-1-methylethoxy]-3-(1-piperidin-4-yl-1H-pyrazol-4-yl)furo[3,2-c]pyridin-6-ylamine]: the IC50 is 500 to 5000 nM at RON (human) and < 500 nM on MET (human).

As for `CNCC(=O)N1CC=C(c2coc3c(O[C@H](C)c4c(Cl)ccc(F)c4Cl)c(N)ncc23)CC1` [Example 250, 1-[4-{6-Amino-7-[(1R)-1-(2,6-dichloro-3-fluorophenyl)ethoxy]furo[3,2-c]pyridin-3-yl}-3,6-dihydropyridin-1(2H)-yl]-2-(methylamino)ethanone], the IC50 at RON (human) and on MET (human) was < 500 nM throughout.

For `CC(Cc1cccc(Cl)c1)Oc1c(N)ncc2c(-c3cnn(C4CCNCC4)c3)coc12` (stereo not drawn) [Example 427, 7-[2-(3-Chlorophenyl)-1-methylethoxy]-3-(1-piperidin-4-yl-1H-pyrazol-4-yl)furo[3,2-c]pyridin-6-ylamine], the IC50 on RON (human) and on MET (human) was < 500 nM in each case.

For the compound `CC(Cc1c(F)cccc1C(F)(F)F)Oc1c(N)ncc2c(-c3cnn(C4CCNCC4)c3)coc12` (stereo not drawn) [Example 441, 7-[2-(2-Fluoro-6-trifluoromethylphenyl)-1-methylethoxy]-3-(1-piperidin-4-yl-1H-pyrazol-4-yl)furo[3,2-c]pyridin-6-ylamine], the IC50 is 500 to 5000 nM at RON (human) and < 500 nM at MET (human).

In the case of `C[C@@H](Oc1c(N)ncc2c(-c3cnn(C4CCNCC4)c3)coc12)c1ccccn1` [Example 399, 3-(1-Piperidin-4-yl-1H-pyrazol-4-yl)-7-((R)-1-pyridin-2-yl-ethoxy)furo[3,2-c]pyridin-6-ylamine], the IC50 on RON (human) and on MET (human) was 500 to 5000 nM each time.

Turning to `Cc1ccc(-c2coc3c(O[C@H](C)c4c(Cl)ccc(F)c4Cl)c(N)ncc23)o1` [Example 117], the IC50 on RON (human) and on MET (human) was 500 to 5000 nM each time.

In the case of `C[C@@H](Oc1c(N)ncc2c(-c3cnn(C4CCNCC4)c3)c(C#N)oc12)c1c(Cl)ccc(F)c1Cl` [Example 169, 6-Amino-7-[(R)-1-(2,6-dichloro-3-fluorophenyl)ethoxy]-3-(1-piperidin-4-yl-1H-pyrazol-4-yl)-furo[3,2-c]pyridine-2-carbonitrile], the IC50 on RON (human) and at MET (human) was 500 to 5000 nM each time.

`CC(Oc1c(N)ncc2c(-c3cnn(C4CCNCC4)c3)coc12)c1cc(F)cc(-c2cn[nH]c2)c1` (stereo not drawn) [Example 451, 7-{1-[3-Fluoro-5-(1H-pyrazol-4-yl)phenyl]ethoxy}-3-(1-piperidin-4-yl-1H-pyrazol-4-yl)furo[3,2-c]pyridin-6-ylamine]: the results for the 50% inhibitory concentration (IC50) at RON (human) and on MET (human) were 500 to 5000 nM and < 500 nM, respectively.

Consider `C[C@@H](Oc1c(N)ncc2c(-c3ccc(N)nc3)coc12)c1c(Cl)ccc(F)c1Cl` [Example 131, 3-(6-Amino-pyridin-3-yl)-7-[(R)-(2,6-dichloro-3-fluorophenyl)ethoxy]furo[3,2-c]pyridin-6-ylamine], for which the IC50 at RON (human) is 500 to 5000 nM; on MET (human), < 500 nM.

Take `C[C@@H](Oc1c(N)ncc2c(C3=CCS(=O)(=O)CC3)coc12)c1c(Cl)ccc(F)c1Cl` [Example 140, 7-[(1R)-1-(2,6-Dichloro-3-fluorophenyl)ethoxy]-3-(1,1-dioxido-3,6-dihydro-2H-thiopyran-4-yl)furo[3,2-c]pyridin-6-amine]: the IC50 is 500 to 5000 nM at RON (human) and < 500 nM on MET (human).

`COc1cccc(-c2coc3c(O[C@H](C)c4c(Cl)ccc(F)c4Cl)c(N)ncc23)c1` [Example 60, 7-[(R)-1-(2,6-Dichloro-3-fluorophenyl)ethoxy]-3-(3-methoxy-phenyl)furo[3,2-c]pyridin-6-ylamine]: the values for the IC50 at RON (human) and on MET (human) were 5000 to 20000 nM and 500 to 5000 nM, respectively.

On to `C[C@@H](Oc1c(N)ncc2c(-c3ccnc(N4CCNCC4)c3)coc12)c1c(Cl)ccc(F)c1Cl` [Example 132, 7-[(R)-(2,6-Dichloro-3-fluorophenyl)ethoxy]-3-(2-piperazin-1-yl-pyridin-4-yl)furo[3,2-c]pyridin-6-ylamine], for which the IC50 on RON (human) and at MET (human) was < 500 nM throughout.

Take `C[C@@H](Oc1c(N)ncc2c(C3=CCN(C(=O)C(C)(C)N)CC3)coc12)c1c(Cl)ccc(F)c1Cl` [Example 24, 2-Amino-1-(4-{6-amino-7-[(R)-1-(2,6-dichloro-3-fluorophenyl)-ethoxy]-furo[3,2-c]pyridin-3-yl}-3,6-dihydro-2H-pyridin-1-yl)-2-methylpropan-1-one]: the half-inhibitory concentration (IC50) at RON (human) and on MET (human) was < 500 nM each time.

For the origin of these results see patent publication US8022206B2 (OSI Pharmaceuticals, LLC, priority 2008, dated 2011).
